{"source": "ChEMBL document CHEMBL4229332", "about": "“Novel multi-target azinesulfonamides of cyclic amine derivatives as potential antipsychotics with pro-social and pro-cognitive effects” (Eur J Med Chem, 2018)", "key": {"[1]": {"molecular_target": "T1, 5-hydroxytryptamine receptor 2A (Homo sapiens, UniProt P28223)", "T1 sequence (P28223 whole entry)": "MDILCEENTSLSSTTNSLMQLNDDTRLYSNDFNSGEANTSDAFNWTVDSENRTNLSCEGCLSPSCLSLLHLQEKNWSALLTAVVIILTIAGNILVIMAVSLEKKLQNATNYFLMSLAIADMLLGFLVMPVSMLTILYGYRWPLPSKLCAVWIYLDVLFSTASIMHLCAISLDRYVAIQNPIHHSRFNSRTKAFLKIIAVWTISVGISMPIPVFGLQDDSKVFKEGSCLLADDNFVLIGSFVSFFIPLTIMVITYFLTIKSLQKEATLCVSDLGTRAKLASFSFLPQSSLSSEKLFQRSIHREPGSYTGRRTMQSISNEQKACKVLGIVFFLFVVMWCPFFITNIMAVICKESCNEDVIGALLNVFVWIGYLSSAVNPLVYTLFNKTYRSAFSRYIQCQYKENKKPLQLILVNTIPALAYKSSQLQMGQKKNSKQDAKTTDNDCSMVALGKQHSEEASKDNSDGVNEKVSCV", "assay": "Antagonist activity at human 5-HT2AR expressed in HEK293 cells assessed as inhibition of serotonin-induced IP1 accumulation by chemiluminescence-based assay", "type": "functional, cell-based"}, "[2]": {"molecular_target": "T2, 5-hydroxytryptamine receptor 1A (Homo sapiens) (UniProt P08908)", "T2 sequence (whole entry)": "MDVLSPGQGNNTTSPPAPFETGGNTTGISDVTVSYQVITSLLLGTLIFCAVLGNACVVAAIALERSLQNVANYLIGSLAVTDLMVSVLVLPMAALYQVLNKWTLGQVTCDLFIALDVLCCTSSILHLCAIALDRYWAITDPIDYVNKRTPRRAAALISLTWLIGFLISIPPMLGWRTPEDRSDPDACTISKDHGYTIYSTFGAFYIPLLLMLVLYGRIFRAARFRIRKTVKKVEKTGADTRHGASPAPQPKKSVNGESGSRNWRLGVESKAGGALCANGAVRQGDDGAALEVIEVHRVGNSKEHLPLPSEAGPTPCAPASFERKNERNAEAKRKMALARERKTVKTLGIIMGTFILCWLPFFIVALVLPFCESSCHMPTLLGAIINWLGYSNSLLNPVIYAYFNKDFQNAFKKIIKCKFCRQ", "assay": "Antagonist activity at human 5-HT1AR expressed in CHO-K1 cells assessed as inhibition of serotonin-induced cAMP accumulation at 10^-6 M by chemiluminescence-based assay", "type": "functional, cell-based"}, "[3]": {"molecular_target": "T3, 5-hydroxytryptamine receptor 7 (Homo sapiens, UniProt P34969)", "T3 sequence (P34969 whole entry)": "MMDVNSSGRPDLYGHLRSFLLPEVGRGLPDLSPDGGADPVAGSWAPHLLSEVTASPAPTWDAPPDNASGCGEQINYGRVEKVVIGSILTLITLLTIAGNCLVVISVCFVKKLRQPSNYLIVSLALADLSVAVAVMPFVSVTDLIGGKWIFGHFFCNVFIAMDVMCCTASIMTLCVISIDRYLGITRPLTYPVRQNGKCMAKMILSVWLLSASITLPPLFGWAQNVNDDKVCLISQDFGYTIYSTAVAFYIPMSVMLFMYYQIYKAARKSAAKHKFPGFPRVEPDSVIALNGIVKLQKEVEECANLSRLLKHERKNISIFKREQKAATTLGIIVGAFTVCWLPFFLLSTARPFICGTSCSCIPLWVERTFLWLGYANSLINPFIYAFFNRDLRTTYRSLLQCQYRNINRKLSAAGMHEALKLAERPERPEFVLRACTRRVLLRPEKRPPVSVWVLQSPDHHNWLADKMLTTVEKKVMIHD", "assay": "Antagonist activity at human 5-HT7R expressed in human DLD1 cells assessed as inhibition of serotonin-induced cAMP accumulation by chemiluminescence-based assay", "type": "functional, cell-based"}, "[4]": {"molecular_target": "T4, 5-hydroxytryptamine receptor 1A (Homo sapiens, UniProt P08908)", "T4 sequence (P08908 whole entry)": "T2 sequence (whole entry)", "assay": "Displacement of [3H]-WAY100635 from recombinant full-length human 5-HT1AR expressed in CHO cells after 120 mins by scintillation counting method", "type": "cell-based"}, "[5]": {"assay": "Tmax in Wistar rat plasma at 9 mg/kg per os administered as a single dose by LC-MS/MS analysis", "type": "ADME, organism-based", "conditions": "po"}, "[6]": {"assay": "Cmax in Wistar rat plasma at 9 mg/kg per os administered as a single dose by LC-MS/MS analysis", "type": "ADME, organism-based", "set-up": "dose 9 mg/kg", "conditions": "po"}, "[7]": {"test_system": "Rattus norvegicus", "assay": "Reversal of ketamine-induced cognitive flexibility in ip dosed Sprague-Dawley rat administered 30 mins prior to ketamine administration by attentional set-shifting test", "type": "functional", "conditions": "read-out: MED"}, "[8]": {"molecular_target": "T3, 5-hydroxytryptamine receptor 7", "assay": "Displacement of [3H]LSD from recombinant human 5-HT7R after 120 mins by scintillation counting method"}, "[9]": {"molecular_target": "Alpha-2C adrenergic receptor (Homo sapiens) (UniProt P18825)", "assay": "Displacement of [3H]-RX 821002 from human adrenergic alpha2C receptor expressed in CHO cells at 10^-6 M after 60 mins by scintillation counting method relative to control", "type": "cell-based"}, "[10]": {"molecular_target": "Beta-1 adrenergic receptor (Homo sapiens) (UniProt P08588)", "assay": "Displacement of [3H]-CGP 12177 from human adrenergic beta1 receptor expressed in HEK293 cells at 10^-6 M after 60 mins by scintillation counting method relative to control", "type": "cell-based"}, "[11]": {"molecular_target": "Beta-2 adrenergic receptor (Homo sapiens) (UniProt P07550)", "sequence (P07550 whole entry, looked up)": "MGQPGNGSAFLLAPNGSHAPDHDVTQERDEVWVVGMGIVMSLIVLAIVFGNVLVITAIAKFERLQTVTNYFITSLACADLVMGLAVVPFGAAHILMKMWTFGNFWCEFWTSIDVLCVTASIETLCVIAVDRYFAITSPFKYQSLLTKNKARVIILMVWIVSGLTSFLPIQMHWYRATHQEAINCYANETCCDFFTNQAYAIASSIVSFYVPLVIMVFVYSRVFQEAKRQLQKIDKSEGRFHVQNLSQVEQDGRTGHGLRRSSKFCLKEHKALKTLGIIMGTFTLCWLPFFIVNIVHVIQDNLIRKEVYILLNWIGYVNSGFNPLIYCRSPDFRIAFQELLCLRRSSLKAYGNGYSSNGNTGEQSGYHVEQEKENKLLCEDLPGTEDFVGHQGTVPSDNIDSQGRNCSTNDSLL", "assay": "Displacement of CGP 12177 from human adrenergic beta2 receptor expressed in CHO cells at 10^-6 M after 60 mins by scintillation counting method relative to contro", "type": "cell-based"}, "[12]": {"molecular_target": "D(1A) dopamine receptor (Homo sapiens) (UniProt P21728)", "sequence (P21728 whole entry)": "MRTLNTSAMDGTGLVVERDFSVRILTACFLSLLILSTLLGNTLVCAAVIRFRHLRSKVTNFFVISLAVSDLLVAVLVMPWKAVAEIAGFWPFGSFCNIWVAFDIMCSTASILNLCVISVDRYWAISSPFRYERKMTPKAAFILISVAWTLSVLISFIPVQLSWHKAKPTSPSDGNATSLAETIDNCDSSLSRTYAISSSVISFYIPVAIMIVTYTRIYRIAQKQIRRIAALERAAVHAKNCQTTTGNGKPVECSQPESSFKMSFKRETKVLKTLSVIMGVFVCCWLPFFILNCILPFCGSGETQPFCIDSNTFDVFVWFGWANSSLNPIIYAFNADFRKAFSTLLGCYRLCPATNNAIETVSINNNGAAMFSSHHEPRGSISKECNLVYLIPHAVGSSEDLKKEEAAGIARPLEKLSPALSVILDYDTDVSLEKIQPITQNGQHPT", "assay": "Displacement of [3H]-SCH 23390 from human dopamine D1 receptor expressed in CHO cells at 10^-6 M after 60 mins by scintillation counting method relative to control", "type": "cell-based"}, "[13]": {"molecular_target": "D(3) dopamine receptor (Homo sapiens) (UniProt P35462)", "sequence (P35462 whole entry)": "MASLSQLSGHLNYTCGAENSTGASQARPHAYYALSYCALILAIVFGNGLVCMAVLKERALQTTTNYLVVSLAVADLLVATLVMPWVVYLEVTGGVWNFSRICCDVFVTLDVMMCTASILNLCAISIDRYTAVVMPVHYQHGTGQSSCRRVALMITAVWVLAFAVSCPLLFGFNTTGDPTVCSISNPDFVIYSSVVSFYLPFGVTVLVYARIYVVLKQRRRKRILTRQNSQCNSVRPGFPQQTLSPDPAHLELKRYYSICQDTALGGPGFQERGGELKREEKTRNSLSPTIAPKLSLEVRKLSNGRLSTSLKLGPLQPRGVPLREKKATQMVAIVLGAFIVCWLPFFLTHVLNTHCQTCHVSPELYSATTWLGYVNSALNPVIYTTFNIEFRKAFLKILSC", "assay": "Displacement of [3H]-methyl-spiperone from human dopamine D3 receptor expressed in CHO cells at 10^-6 M after 60 mins by scintillation counting method relative to control", "type": "cell-based"}, "[14]": {"molecular_target": "D(4) dopamine receptor (Homo sapiens) (UniProt P21917)", "sequence (P21917 whole entry)": "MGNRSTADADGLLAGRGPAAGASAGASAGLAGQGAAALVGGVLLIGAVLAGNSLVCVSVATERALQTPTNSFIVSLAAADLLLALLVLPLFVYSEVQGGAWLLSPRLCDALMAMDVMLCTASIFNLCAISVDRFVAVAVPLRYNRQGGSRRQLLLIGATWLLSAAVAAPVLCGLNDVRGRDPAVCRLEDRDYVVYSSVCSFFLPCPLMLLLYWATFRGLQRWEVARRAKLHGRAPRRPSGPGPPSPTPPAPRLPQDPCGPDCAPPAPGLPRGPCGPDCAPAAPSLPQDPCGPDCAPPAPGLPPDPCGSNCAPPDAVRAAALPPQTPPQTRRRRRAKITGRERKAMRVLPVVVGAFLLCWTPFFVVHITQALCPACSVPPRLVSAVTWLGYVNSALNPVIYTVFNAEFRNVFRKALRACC", "assay": "Displacement of [3H]-methyl-spiperone from human dopamine D4 receptor expressed in CHO cells at 10^-6 M after 60 mins by scintillation counting method relative to control", "type": "cell-based"}, "[15]": {"molecular_target": "5-hydroxytryptamine receptor 1B (Rattus norvegicus) (UniProt P28564)", "sequence (P28564 whole entry)": "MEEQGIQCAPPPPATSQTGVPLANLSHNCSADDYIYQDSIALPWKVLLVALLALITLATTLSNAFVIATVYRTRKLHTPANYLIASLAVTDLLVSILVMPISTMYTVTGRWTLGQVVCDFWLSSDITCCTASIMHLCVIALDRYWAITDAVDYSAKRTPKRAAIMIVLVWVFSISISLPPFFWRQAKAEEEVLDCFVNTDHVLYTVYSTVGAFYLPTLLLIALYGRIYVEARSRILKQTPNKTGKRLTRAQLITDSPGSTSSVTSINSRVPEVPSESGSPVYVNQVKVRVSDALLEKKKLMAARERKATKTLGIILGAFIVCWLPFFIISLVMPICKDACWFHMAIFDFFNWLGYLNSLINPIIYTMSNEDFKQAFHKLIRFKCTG", "assay": "Displacement of [125I]-CYP from 5-HT1BR in rat cerebral cortex at 10^-6 M after 120 mins by scintillation counting analysis relative to control"}, "[16]": {"molecular_target": "T1, 5-hydroxytryptamine receptor 2A", "assay": "Displacement of [3H]ketanserin from human recombinant 5-HT2A receptor at 10^-6 M after 60 mins by scintillation counting analysis relative to control"}, "[17]": {"molecular_target": "5-hydroxytryptamine receptor 3A (Homo sapiens) (UniProt P46098)", "assay": "Displacement of [3H]BRL 43694 from human 5-HT3 receptor expressed in CHO cells at 10^-6 M after 120 mins by scintillation counting analysis relative to control", "type": "cell-based"}, "[18]": {"molecular_target": "T5, 5-hydroxytryptamine receptor 6 (Homo sapiens, UniProt P50406)", "T5 sequence (P50406 whole entry)": "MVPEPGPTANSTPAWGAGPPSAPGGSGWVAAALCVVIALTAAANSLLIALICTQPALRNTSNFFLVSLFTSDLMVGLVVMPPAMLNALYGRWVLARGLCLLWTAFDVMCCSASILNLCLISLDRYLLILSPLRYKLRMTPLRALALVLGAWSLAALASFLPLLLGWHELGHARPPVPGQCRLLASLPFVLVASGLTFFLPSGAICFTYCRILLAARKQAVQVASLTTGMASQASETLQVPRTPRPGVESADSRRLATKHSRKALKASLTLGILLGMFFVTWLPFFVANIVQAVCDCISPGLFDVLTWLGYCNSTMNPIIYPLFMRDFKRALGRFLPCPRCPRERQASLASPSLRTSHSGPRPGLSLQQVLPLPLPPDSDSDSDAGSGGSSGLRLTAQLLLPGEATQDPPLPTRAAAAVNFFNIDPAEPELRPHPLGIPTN", "assay": "Displacement of [3H]LSD from human recombinant 5-HT6 receptor at 10^-6 M after 120 mins by scintillation counting analysis relative to control"}, "[19]": {"molecular_target": "Sodium-dependent noradrenaline transporter (Homo sapiens) (UniProt P23975)", "sequence (P23975 whole entry)": "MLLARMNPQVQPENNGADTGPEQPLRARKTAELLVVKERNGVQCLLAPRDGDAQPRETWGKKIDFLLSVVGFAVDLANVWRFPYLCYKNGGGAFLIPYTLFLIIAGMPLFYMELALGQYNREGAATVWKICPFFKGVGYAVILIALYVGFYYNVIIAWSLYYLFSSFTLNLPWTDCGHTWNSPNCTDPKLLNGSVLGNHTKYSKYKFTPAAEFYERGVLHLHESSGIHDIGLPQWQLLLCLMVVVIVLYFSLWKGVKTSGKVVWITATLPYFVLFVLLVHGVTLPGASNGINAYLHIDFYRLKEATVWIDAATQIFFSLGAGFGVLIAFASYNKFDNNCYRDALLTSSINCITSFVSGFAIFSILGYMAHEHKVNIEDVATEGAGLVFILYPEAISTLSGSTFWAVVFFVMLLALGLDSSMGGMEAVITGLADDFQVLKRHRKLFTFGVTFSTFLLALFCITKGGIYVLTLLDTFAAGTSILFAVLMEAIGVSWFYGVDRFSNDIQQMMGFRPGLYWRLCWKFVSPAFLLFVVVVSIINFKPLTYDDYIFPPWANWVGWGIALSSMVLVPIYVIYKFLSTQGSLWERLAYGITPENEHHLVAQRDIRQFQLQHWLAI", "assay": "Displacement of [3H]-nisoxetine from human NET expressed in CHO cells at 10^-6 M after 120 mins by scintillation counting method relative to control", "type": "cell-based"}, "[20]": {"molecular_target": "T2, 5-hydroxytryptamine receptor 1A (Homo sapiens)", "assay": "Partial agonist activity at human 5-HT1AR expressed in CHO-K1 cells assessed as increase in calcium flux by fluorimetric method", "type": "functional, cell-based"}, "[21]": {"molecular_target": "5-hydroxytryptamine receptor 1D (Rattus norvegicus) (UniProt P28565)", "sequence (P28565 whole entry)": "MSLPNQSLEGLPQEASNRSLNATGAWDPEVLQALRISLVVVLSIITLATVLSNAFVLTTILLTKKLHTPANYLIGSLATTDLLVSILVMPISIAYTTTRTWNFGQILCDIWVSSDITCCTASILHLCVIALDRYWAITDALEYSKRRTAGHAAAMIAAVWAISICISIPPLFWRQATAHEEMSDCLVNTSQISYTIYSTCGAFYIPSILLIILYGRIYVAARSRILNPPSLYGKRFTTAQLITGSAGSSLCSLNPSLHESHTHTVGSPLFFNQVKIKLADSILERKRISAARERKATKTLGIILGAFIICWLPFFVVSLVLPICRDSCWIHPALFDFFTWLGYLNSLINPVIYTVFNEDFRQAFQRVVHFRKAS", "assay": "Antagonist activity at rat 5-HT1DR expressed in CHO cells assessed as inhibition of serotonin-induced response by cellular dielectric spectroscopy", "type": "functional, cell-based"}, "[22]": {"molecular_target": "5-hydroxytryptamine receptor 2C (Homo sapiens) (UniProt P28335)", "assay": "Antagonist activity at human 5-HT2CR expressed in HEK293 cells assessed as inhibition of serotonin-induced IP1 accumulation after 30 mins by HTRF method", "type": "functional, cell-based"}, "[23]": {"molecular_target": "T5, 5-hydroxytryptamine receptor 6", "assay": "Antagonist activity at human 5-HT6R expressed in CHO-K1 cells assessed as inhibition of serotonin-induced cAMP accumulation after 30 mins by chemiluminescence-based assay", "type": "functional, cell-based"}, "[24]": {"molecular_target": "T5, 5-hydroxytryptamine receptor 6", "assay": "Antagonist activity at human 5-HT6R expressed in CHO-K1 cells assessed as inhibition of serotonin-induced cAMP accumulation at 10^-6 M after 30 mins by chemiluminescence-based assay", "type": "functional, cell-based"}, "[25]": {"molecular_target": "T3, 5-hydroxytryptamine receptor 7", "assay": "Antagonist activity at human 5-HT7R expressed in CHO-K1 cells assessed as inhibition of serotonin-induced cAMP accumulation at 10^-6 M after 30 mins by chemiluminescence-based assay", "type": "functional, cell-based"}, "[26]": {"molecular_target": "D(2) dopamine receptor (Homo sapiens) (UniProt P14416)", "sequence (P14416 whole entry)": "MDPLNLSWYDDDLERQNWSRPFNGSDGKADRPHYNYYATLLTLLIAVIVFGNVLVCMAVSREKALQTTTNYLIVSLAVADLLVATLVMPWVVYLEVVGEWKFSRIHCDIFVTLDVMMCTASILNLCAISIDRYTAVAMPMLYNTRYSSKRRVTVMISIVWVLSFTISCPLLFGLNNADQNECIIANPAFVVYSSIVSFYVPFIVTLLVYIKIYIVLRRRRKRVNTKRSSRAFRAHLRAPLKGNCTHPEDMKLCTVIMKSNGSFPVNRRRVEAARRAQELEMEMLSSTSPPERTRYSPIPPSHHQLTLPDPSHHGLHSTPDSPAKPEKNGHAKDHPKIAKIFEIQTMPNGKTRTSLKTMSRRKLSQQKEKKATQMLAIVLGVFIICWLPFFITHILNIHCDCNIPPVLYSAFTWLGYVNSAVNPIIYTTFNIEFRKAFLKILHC", "assay": "Antagonist activity at human D2LR expressed in CHO-K1 cells assessed as inhibition of dopamine-induced calcium flux by fluorimetric method", "type": "functional, cell-based"}, "[27]": {"molecular_target": "D(2) dopamine receptor (Homo sapiens) (UniProt P14416)", "assay": "Antagonist activity at human D2LR expressed in CHO-K1 cells assessed as inhibition of dopamine-induced calcium flux at 10^-6 M by fluorimetric method", "type": "functional, cell-based"}, "[28]": {"molecular_target": "D(3) dopamine receptor (Homo sapiens) (UniProt P35462)", "assay": "Antagonist activity at human D3R expressed in CHO-K1 cells assessed as inhibition of dopamine induced cAMP accumulation after 30 mins by HTRF method", "type": "functional, cell-based"}, "[29]": {"molecular_target": "T5, 5-hydroxytryptamine receptor 6", "assay": "biochemical", "description": "Displacement of [3H]-LSD from human 5-HT6R expressed in HEK293 cell membranes after 1 hr at 37 degC by microbeta counting method"}}, "data": [{"compound": "O=S(=O)(c1cncc2ccccc12)N1CCC[C@H]1CCN1CCN(c2cccc3sccc23)CC1", "values": [{"measurement": "Kb", "setting": "[1]", "result": 2.3, "unit": "nM"}, {"measurement": "inhibition", "setting": "[2]", "result": 32.5, "unit": "%"}, {"measurement": "Kb", "setting": "[3]", "result": 3.4, "unit": "nM"}, {"measurement": "Ki", "setting": "[4]", "result": 18, "unit": "nM"}, {"measurement": "Tmax", "setting": "[5]", "result": 10, "unit": "min"}, {"measurement": "Cmax", "setting": "[6]", "result": 54, "unit": "nM"}, {"measurement": "minimal effective dose", "setting": "[7]", "result": 1, "unit": "mg/kg"}, {"measurement": "Ki", "setting": "[8]", "result": 19, "unit": "nM"}, {"measurement": "inhibition", "setting": "[9]", "result": 99, "unit": "%"}, {"measurement": "inhibition", "setting": "[10]", "result": 31, "unit": "%"}, {"measurement": "inhibition", "setting": "[11]", "result": 25, "unit": "%"}, {"measurement": "inhibition", "setting": "[12]", "result": 10, "unit": "%"}, {"measurement": "inhibition", "setting": "[13]", "result": 98, "unit": "%"}, {"measurement": "inhibition", "setting": "[14]", "result": 10, "unit": "%"}, {"measurement": "inhibition", "setting": "[15]", "result": 84, "unit": "%"}, {"measurement": "inhibition", "setting": "[16]", "result": 100, "unit": "%"}, {"measurement": "inhibition", "setting": "[17]", "result": 15, "unit": "%"}, {"measurement": "inhibition", "setting": "[18]", "result": 23, "unit": "%"}, {"measurement": "inhibition", "setting": "[19]", "result": 11, "unit": "%"}, {"measurement": "Kb", "setting": "[20]", "result": 28.3, "unit": "nM"}, {"measurement": "Kb", "setting": "[21]", "result": 2.8, "unit": "nM"}, {"measurement": "Kb", "setting": "[22]", "result": 24, "unit": "nM"}]}, {"compound": "O=S(=O)(c1cncc2ccccc12)N1CCC[C@H]1CCN1CCN(c2nsc3ccccc23)CC1", "values": [{"measurement": "Kb", "setting": "[23]", "result": 974, "unit": "nM"}, {"measurement": "inhibition", "setting": "[24]", "result": 23, "unit": "%"}, {"measurement": "inhibition", "setting": "[25]", "result": 100, "unit": "%"}, {"measurement": "Kb", "setting": "[26]", "result": 0.42, "unit": "nM"}, {"measurement": "inhibition", "setting": "[27]", "result": 100, "unit": "%"}, {"measurement": "Kb", "setting": "[28]", "result": 8.6, "unit": "nM"}, {"measurement": "Ki", "setting": "[29]", "result": 313, "unit": "nM"}]}]}
